Here are results for 4 compounds from the NIST ThermoML archive (doi:10.1021/acs.jced.6b00606).

The nature of series [1]: molar heat capacity at constant pressure. The conditions noted are these: 101.33 kPa, Liquid, Extra sensitive DSC.
The conditions of series [2]: Liquid; for speed of sound: 100 kPa, Frequency=3 MHz, Sing-around technique in a fixed-path interferometer; for mass density: 101.33 kPa, Vibrating tube method.

Numbers after ± are expanded uncertainties.

Regarding `C1COCCO1` [1,4-dioxane], the “molar heat capacity at constant pressure” value in series [1] (293.15 K) amounted to 151.62 ± 5.9 J/K/mol; in series [1] (298.15 K) it was 152.76 ± 5.9 J/K/mol; in series [1] (303.15 K), 153.92 ± 6 J/K/mol; in series [1] (308.15 K) it was 155.09 ± 6 J/K/mol. Also, the speed of sound in series [2] (293.15 K) was 1367.8 ± 1.5 m/s; in series [2] (298.15 K) it was 1346 ± 1.5 m/s; in series [2] (303.15 K), 1324.4 ± 1.5 m/s; in series [2] (308.15 K), 1302.5 ± 1.5 m/s. The mass density came to 1033.59 ± 1 kg/m3 in series [2] (293.15 K), 1027.94 ± 1 kg/m3 in series [2] (298.15 K), 1022.28 ± 1 kg/m3 in series [2] (303.15 K) and 1016.59 ± 1 kg/m3 in series [2] (308.15 K).
Consider `O=C1CCCCCC1` [cycloheptanone], for which the “molar heat capacity at constant pressure” value was 201.11 ± 7.8 J/K/mol in series [1] (293.15 K), 202.01 ± 7.8 J/K/mol in series [1] (298.15 K), 203.21 ± 7.9 J/K/mol in series [1] (303.15 K) and 204.51 ± 7.9 J/K/mol in series [1] (308.15 K). In addition, the speed of sound in series [2] (293.15 K) is 1477.3 ± 1.6 m/s; in series [2] (298.15 K), 1455 ± 1.6 m/s; in series [2] (303.15 K), 1432.4 ± 1.6 m/s; in series [2] (308.15 K), 1409.6 ± 1.6 m/s. The mass density in series [2] (293.15 K) is given as 951.85 ± 1 kg/m3; in series [2] (298.15 K), 947.62 ± 1 kg/m3; in series [2] (303.15 K), 943.38 ± 1 kg/m3; in series [2] (308.15 K) it was 939.14 ± 1 kg/m3.
Take `O=C1CCCCC1` [cyclohexanone]: the “molar heat capacity at constant pressure” value in series [1] (293.15 K) is 176.17 ± 6.8 J/K/mol; in series [1] (298.15 K) it was 178.27 ± 6.9 J/K/mol; in series [1] (303.15 K) it was 180.38 ± 7 J/K/mol; in series [1] (308.15 K), 182.46 ± 7.1 J/K/mol. Moreover, the speed of sound in series [2] (293.15 K) was found to be 1431.2 ± 1.3 m/s; in series [2] (298.15 K), 1415.5 ± 1.3 m/s; in series [2] (303.15 K), 1395.1 ± 1.3 m/s; in series [2] (308.15 K) it was 1375.1 ± 1.3 m/s. Besides, the mass density is reported as 947.38 ± 1 kg/m3 in series [2] (293.15 K), 942.92 ± 1 kg/m3 in series [2] (298.15 K), 938.07 ± 1 kg/m3 in series [2] (303.15 K) and 933.19 ± 1 kg/m3 in series [2] (308.15 K).
As for `C1CCOCC1` [tetrahydropyran], the “molar heat capacity at constant pressure” value in series [1] (293.15 K) came out at 148.03 ± 5.7 J/K/mol; in series [1] (298.15 K), 149.68 ± 5.8 J/K/mol; in series [1] (303.15 K) it was 151.18 ± 5.9 J/K/mol; in series [1] (308.15 K) it was 153.01 ± 5.9 J/K/mol. Also, the speed of sound in series [2] (293.15 K) is on record as 1293 ± 1.4 m/s; in series [2] (298.15 K) it was 1269.7 ± 1.4 m/s; in series [2] (303.15 K), 1246.7 ± 1.4 m/s; in series [2] (308.15 K), 1224.3 ± 1.4 m/s. Besides, the mass density in series [2] (293.15 K) was 884.23 ± 1 kg/m3; in series [2] (298.15 K), 879.09 ± 1 kg/m3; in series [2] (303.15 K), 873.91 ± 1 kg/m3; in series [2] (308.15 K), 868.75 ± 1 kg/m3.

Broadly, the speed of sound is the propagation velocity of pressure waves in the medium. As a reminder, the mass density is the mass of a sample divided by its volume.
